From patent US20080182830A1, “Agent for Treatment and Prevention of Endometriosis and Uterine Adenomyosis” (priority 2005, published 2008)

How the values were obtained:
[1] = system: ovarian chocolate cyst; test: Therapy of ovarian chocolate cyst, injection into aspirated cyst; type: in vivo, human
Excerpt: A patient having ovarian chocolate cyst was subjected to the treatment using the therapeutic agent according to the present invention. In this patient, by transvaginal ultrasonic diagnosis, the cyst having a diameter of 6 cm was recognized in Cul-de-Sac. Moreover, CA125 in the blood indicated 1522 units and CA602 indicated 352 units (the normal value is 63 units or less). The indicated values were abnormally high. It was confirmed that the distance from the vaginal fornix to cyst was within 1 cm, and under observation with a transvaginal ultrasonography, the cyst content was punctured with a needle from the posterior vaginal fornix and was aspirated. Then, the 2 mL ethanol solution containing 2 mg of 3-ethyl pyridine was injected. As a result, the ovarian chocolate cyst disappeared four weeks after the injection. The uterus was scaled down to 2.5 cm. The menstrual pain disappeared. Moreover, CA125 in the blood was lowered to be 52 units and CA602 was lowered to be 61 units.
In addition to the above case, patients of other 12 cases having chocolate cysts were subjected to the following treatment. That is, under a transvaginal ultrasonic guide, the ovarian chocolate cyst having a distance within 10 mm from the posterior vaginal fornix was punctured and the cyst content was aspirated and then the 3 mL ethyl ether solution containing 3 mg of 3-ethylpyridine was injected into the cyst. As a result, in all 12 cases, the ovarian chocolate cyst was scaled down, and at the same time, the menstrual pain disappeared in eight cases, and, improved in three cases. […] In addition, existence of malignant cells in the aspirated cystic content was denied by cytodiagnosis.

[2] = system: uterine adenomyosis; test: Therapy of uterine adenomyosis (2), patient series with intrauterine devices; type: in vivo, human
Protocol: An intrauterine device (IUD) containing 600 μg to 900 μg of 3-ethylpyridine was inserted for 6 months […] of each of patients (12 cases) having uterine adenomyosis recurring after the nasal administration or injection of GnRH analogs.

[3] = system: vaginal endometriosis; test: Therapy of vaginal endometriosis, vaginal ring; type: in vivo, human
Protocol: A patient having endometriosis recurred after operation of the left ovary and Cul-de-Sac endometriosis was subjected to the treatment using the therapeutic agent according to the present invention. In the patient with an induration about 7 cm×about 5 cm in a deep right posterior fornix of the vagina. […] Moreover, menstrual pain, extramenstrual pain, severe lower abdominal pain, defecation pain, and coital pain were recognized. Accordingly, the above-described doughnut-type ring containing 9 mg 3-ethylpyridine was inserted into the posterior vaginal fornix. As a result, four weeks after the insertion, the coital pain, the defecation pain, the extramenstrual lower abdominal pain and low back pain disappeared, and the menstrual pain was reduced. The induration at the right posterior fornix of the vagina was scaled down to 4 cm×2 cm. Then, by continuous treatment, the induration at the right posterior fornix of the vagina was further scaled down to have 2 cm×1 cm. In addition to the above case, with respect to each of patients of other two cases having endometriosis, the pathological endometriosis was confirmed by biopsy and then, a vaginal ring containing 8 to 10 mg of 3-ethylpyridine was inserted into the vagina.

[4] = system: deep endometriosis; test: Therapy of deep endometriosis (2), 18 cases, vaginal ring; type: in vivo, human
Protocol: A vaginal ring containing 8 to 10 mg of 3-ethylpyridine was inserted into the vagina of each of deep endometriosis patients (18 cases) for 3 months. As a result, disappearance of pressure pain and induration in Cul-de-Sac was recognized in 9 cases, and improvement thereof was recognized in 7 cases, and nullity thereof was recognized in 2 cases. The menstrual pain disappeared in 4 cases, and improved in 13 cases and null in only one case. A coital pain disappeared in 10 cases and a defecation pain was improved in 7 cases.

[5] = system: uterine adenomyosis; test: Therapy of uterine adenomyosis (1), single patient; type: in vivo, human
Excerpt: A patient having uterine adenomyosis was subjected to the treatment using the therapeutic agent according to the present invention. The patient had been subjected to injection of Leuplin, which was a therapeutic drug for endometriosis at one time per a month continuously for six months. However, the disease was not cured. Then, the uterus was enlarged to have a size corresponding to the third month of pregnancy, and menstrual pain was severe, and a menstrual bleeding was abundant. Moreover, CA125 in the blood indicated 441 units (the normal units are 35 units or less) and CA602 indicated 1025 units (the normal value is 63 units or less). The indicated values were abnormally high.
The menstrual pain and the hypermenorrhea disappeared. Moreover, CA125 in the blood was reduced to be 38 units and CA602 was reduced to 53 units after 60 days from the initiation of the administration. Accordingly, it can be said that the uterine adenomyosis was fully cured.

[6] = system: deep endometriosis; test: Therapy of deep endometriosis (1), single patient, vaginal rings; type: in vivo, human
Excerpt: A patient suffered from intensive menstrual pain by deep endometriosis was subjected to the treatment using the therapeutic agent according to the present invention.

[7] = system: chorioallantoic membrane of chicken; conditions: Lin J. et al. 2002; G. Melkonian et al. 2004; cited from earlier work
[8] = other 12 cases, 3 mL ethyl ether solution containing 3 mg
[9] = single patient, 2 mL ethanol solution containing 2 mg injected
[10] = IUD containing 600 μg to 900 μg, 6 months, 12 cases
[11] = doughnut-type ring 9 mg, four weeks after insertion
[12] = other two cases, vaginal ring containing 8 to 10 mg
[13] = vaginal ring 8 to 10 mg for 3 months
[14] = IUD-type device containing 825 μg
[15] = IUD-type device containing 825 μg inserted into the uterus
[16] = vaginal ring 10 mg 3-ethylpyridine, after the danazol ring
[17] = vaginal ring 1,000 mg danazol for 6 months

CCc1cccnc1 [3-ethylpyridine]
cyst enlarged again after the six months [1, 8]: three
menstrual pain disappeared [1, 8]: eight
menstrual pain improved [1, 8]: three
ovarian chocolate cyst scaled down ([1]; other 12 cases, 3 mL ethyl ether solution containing 3 mg injected into the cyst): 12 cases
CA602 in the blood ([1]; single patient, 2 mg injected, before 352 units, normal 63 units or less): 61 units
CA125 in the blood ([1]; single patient, 2 mg injected, before 1522 units): 52 units
menstrual pain [1, 9]: disappeared
uterus scaled down to [1, 9]: 2.5 cm
ovarian chocolate cyst ([1]; single patient, 2 mL ethanol solution containing 2 mg injected after aspiration, four weeks after injection, cyst diameter 6 cm before): disappeared
ovary chocolate cyst outcome after repeated puncture and injection ([1]; the three cases enlarged again after six months): could be cured
menstrual pain disappeared [2, 10]: eight
menstrual pain improved [2, 10]: four
therapeutic effect [2, 10]: in all the cases, therapeutic effect was recognized
hypermenorrhea disappeared ([2]; IUD containing 600 μg to 900 μg, 6 months, 12 cases recurring after GnRH analogs): nine
defecation pain [3, 11]: disappeared
extramenstrual lower abdominal pain and low back pain [3, 11]: disappeared
menstrual pain [3, 11]: reduced
menstrual pain and defecation pain [3, 12]: disappeared in all the cases
vaginal endometriosis [3, 12]: disappeared macroscopically and histologically in all two cases
coital pain ([3]; patient, doughnut-type ring containing 9 mg in posterior vaginal fornix, four weeks after insertion): disappeared
coital pain disappeared [4, 13]: 10 cases
defecation pain improved [4, 13]: 7 cases
improvement of pressure pain and induration in Cul-de-Sac [4, 13]: 7 cases
menstrual pain disappeared [4, 13]: 4 cases
menstrual pain improved [4, 13]: 13 cases
menstrual pain null [4, 13]: one
nullity (no effect) on pressure pain and induration in Cul-de-Sac [4, 13]: 2 cases
disappearance of pressure pain and induration in Cul-de-Sac ([4]; vaginal ring containing 8 to 10 mg for 3 months): 9 cases
CA125 in the blood ([5]; IUD-type device 825 μg, after 60 days from initiation, before 441 units, normal 35 units or less): 38 units
CA602 in the blood ([5]; IUD-type device 825 μg, after 60 days from initiation, before 1025 units, normal 63 units or less): 53 units
recurrence after suspension of the treatment [5, 14]: not recognized
uterine adenomyosis outcome [5, 14]: fully cured
hypermenorrhea [5, 15]: disappeared
menstrual pain [5, 15]: disappeared
size of the uterine corpus ([5]; IUD-type device containing 825 μg inserted into the uterus, six months after insertion, before: size of third month of pregnancy): scaled down to a normal size
induration in Cul-de-Sac [6, 16]: not scaled down
menstrual pain [6, 16]: further decreased
CA125 in the blood ([6]; vaginal ring containing 10 mg 3-ethylpyridine, after the danazol ring, in 3 months, from 620 units): 250 units
growth of chorioallantoic membrane of chicken [7]: inhibits the growth

CCNC(=O)[C@@H]1CCCN1C(=O)[C@H](CCCNC(=N)N)NC(=O)[C@H](CC(C)C)NC(=O)[C@@H](CC(C)C)NC(=O)[C@H](Cc1ccc(O)cc1)NC(=O)[C@H](CO)NC(=O)[C@H](Cc1c[nH]c2ccccc12)NC(=O)[C@H](Cc1c[nH]cn1)NC(=O)[C@@H]1CCC(=O)N1 [Leuplin, reference compound]
disease (uterine adenomyosis) outcome ([5]; patient, injection one time per month continuously for six months): not cured

C#C[C@]1(O)CC[C@H]2[C@@H]3CCC4=Cc5oncc5C[C@]4(C)[C@H]3CC[C@@]21C [danazol, reference compound]
uterine adenomyosis outcome ([2]; earlier treatment with IUDs containing danazol, the 55 cases): not cured
CA125 in the blood ([6]; patient, vaginal ring containing 1,000 mg danazol for 6 months, from 950 units): 620 units
menstrual pain [6, 17]: reduced but not fully cured
painful induration in Cul-de-Sac [6, 17]: not scaled down
